Earlier results as cited in patent US7759338B2, “Soluble 1,4 benzodiazepine compounds and stable salts thereof” (The Regents of the University of Michigan, priority 2006, dated 2010).

How the values were obtained:
[1] = target: mitochondrial F1Fo-ATPase; settings: F1Fo-ATPase inhibition
rodents = settings: two daily doses

CC[C@H]1/C=C/C=C/C[C@@H](C)[C@H](O)[C@@](C)(O)C(=O)[C@@H](C)[C@H](O)[C@@H](C)C(=O)[C@@H](C)[C@H](O)[C@@H](C)/C=C/C(=O)O[C@@H]2[C@H](C)[C@H](CC1)O[C@]1(CC[C@H](C)[C@H](C[C@@H](C)O)O1)[C@H]2C [oligomycin]
IC50 [1]: 10 nM | LD50 (rodents): 0.5 mg/kg
